How the values were obtained:
3T3 Swiss Albino cells = assay: In vitro toxicity test (MTT) on cell viability; assay type: cell-based; conditions: 0.02 μM, 48 hours
Protocol: METHODS: 3T3 Swiss Albino cells were cultured in 96-well plates. The cells were then administered with the extract combination of Lagerstroemia speciosa and Cinnamomum burmannii in a range of dose 1-10 μg/ml, pioglitazone and glimepiride (as control) for 48 hours to study the extract toxicity towards cells. Each well was added MTT reagent and the number of living cells was counted using a spectrometer.

[1] = system: insulin resistance adipocytes 3T3 Swiss Albino cells; assay: Glucose uptake by insulin resistance adipocytes (anthrone reagent, spectrophotometer); assay type: cell-based; conditions: 5 μg/ml extract combination or 0.02 μM pioglitazone, 48 hours, from the initial 5% (untreated)
Protocol: FIG. 12 is the graphic of glucose measurement results obtained from insulin resistance adipocytes 3T3 Swiss Albino after administration of 5 μg/ml Lythraceae and Lauraceae family plant combination extracts or 0.02 μM pioglitazone and/or 25 nM insulin during 48 hours incubation, then incubation with 5 mg/ml glucose for 0, 2, 4, 6 hours. 3T3 Swiss Albino cells were differentiated until 3T3 Swiss Albino pre-adipocytes and 3T3 Swiss Albino adipocytes cells were obtained. Each cell type received excessive glucose for over 2 weeks. Incubated cells received such excessive glucose were used as insulin resistance model. After that, those four type cells obtained were tested for its ability to uptake glucose in media. The remaining glucose level was analyzed so that the glucose level uptaken by each 3T3 Swiss Albino cell type could be determined. To measure glucose level that was uptaken by cell, we used an experiment method which is initialized by culturing 3T3 Swiss Albino cells in 6 cm-diameter plates. […] Glucose concentration that was uptaken by cells was measured by subtracting the initial glucose concentration with the remaining glucose in media at the end of incubation time. […] The reaction result was quantified by spectrophotometer.

Row | Structure (SMILES) | cell viability (3T3 Swiss Albino cells) | glucose level uptaken [1] [%]
1 | CCC1=C(C)CN(C(=O)NCCc2ccc(S(=O)(=O)NC(=O)N[C@H]3CC[C@H](C)CC3)cc2)C1=O [glimepiride] | did not show any effect | 
2 | CCc1ccc(CCOc2ccc(CC3SC(=O)NC3=O)cc2)nc1 (stereo not drawn) [pioglitazone] | did not show any effect | 20

Reference: patent US9345731B2, “Herbal extract as sensitivity enhancer toward insulin and antidiabetes” (PT. DEXA MEDICA, priority 2008, dated 2016)
